The results in this text go back to US10457654B2 (GENENTECH, INC., priority 2017, dated 2019).

Experiment [1] has as its target T1, hNav1.7 (Homo sapiens (Human), UniProt Q15858). Put plainly: Tritiated compound binding to membranes from cells expressing hNav1.7 and the β1 subunit, modified protocol (LBA, Ex. 243B). The note with it: 300 pM [3H]compound, room temperature, read-out: Nav1.7 LBA (Ex. 243B) IC50.
Target sequence in this assay (Q15858 whole entry, looked up): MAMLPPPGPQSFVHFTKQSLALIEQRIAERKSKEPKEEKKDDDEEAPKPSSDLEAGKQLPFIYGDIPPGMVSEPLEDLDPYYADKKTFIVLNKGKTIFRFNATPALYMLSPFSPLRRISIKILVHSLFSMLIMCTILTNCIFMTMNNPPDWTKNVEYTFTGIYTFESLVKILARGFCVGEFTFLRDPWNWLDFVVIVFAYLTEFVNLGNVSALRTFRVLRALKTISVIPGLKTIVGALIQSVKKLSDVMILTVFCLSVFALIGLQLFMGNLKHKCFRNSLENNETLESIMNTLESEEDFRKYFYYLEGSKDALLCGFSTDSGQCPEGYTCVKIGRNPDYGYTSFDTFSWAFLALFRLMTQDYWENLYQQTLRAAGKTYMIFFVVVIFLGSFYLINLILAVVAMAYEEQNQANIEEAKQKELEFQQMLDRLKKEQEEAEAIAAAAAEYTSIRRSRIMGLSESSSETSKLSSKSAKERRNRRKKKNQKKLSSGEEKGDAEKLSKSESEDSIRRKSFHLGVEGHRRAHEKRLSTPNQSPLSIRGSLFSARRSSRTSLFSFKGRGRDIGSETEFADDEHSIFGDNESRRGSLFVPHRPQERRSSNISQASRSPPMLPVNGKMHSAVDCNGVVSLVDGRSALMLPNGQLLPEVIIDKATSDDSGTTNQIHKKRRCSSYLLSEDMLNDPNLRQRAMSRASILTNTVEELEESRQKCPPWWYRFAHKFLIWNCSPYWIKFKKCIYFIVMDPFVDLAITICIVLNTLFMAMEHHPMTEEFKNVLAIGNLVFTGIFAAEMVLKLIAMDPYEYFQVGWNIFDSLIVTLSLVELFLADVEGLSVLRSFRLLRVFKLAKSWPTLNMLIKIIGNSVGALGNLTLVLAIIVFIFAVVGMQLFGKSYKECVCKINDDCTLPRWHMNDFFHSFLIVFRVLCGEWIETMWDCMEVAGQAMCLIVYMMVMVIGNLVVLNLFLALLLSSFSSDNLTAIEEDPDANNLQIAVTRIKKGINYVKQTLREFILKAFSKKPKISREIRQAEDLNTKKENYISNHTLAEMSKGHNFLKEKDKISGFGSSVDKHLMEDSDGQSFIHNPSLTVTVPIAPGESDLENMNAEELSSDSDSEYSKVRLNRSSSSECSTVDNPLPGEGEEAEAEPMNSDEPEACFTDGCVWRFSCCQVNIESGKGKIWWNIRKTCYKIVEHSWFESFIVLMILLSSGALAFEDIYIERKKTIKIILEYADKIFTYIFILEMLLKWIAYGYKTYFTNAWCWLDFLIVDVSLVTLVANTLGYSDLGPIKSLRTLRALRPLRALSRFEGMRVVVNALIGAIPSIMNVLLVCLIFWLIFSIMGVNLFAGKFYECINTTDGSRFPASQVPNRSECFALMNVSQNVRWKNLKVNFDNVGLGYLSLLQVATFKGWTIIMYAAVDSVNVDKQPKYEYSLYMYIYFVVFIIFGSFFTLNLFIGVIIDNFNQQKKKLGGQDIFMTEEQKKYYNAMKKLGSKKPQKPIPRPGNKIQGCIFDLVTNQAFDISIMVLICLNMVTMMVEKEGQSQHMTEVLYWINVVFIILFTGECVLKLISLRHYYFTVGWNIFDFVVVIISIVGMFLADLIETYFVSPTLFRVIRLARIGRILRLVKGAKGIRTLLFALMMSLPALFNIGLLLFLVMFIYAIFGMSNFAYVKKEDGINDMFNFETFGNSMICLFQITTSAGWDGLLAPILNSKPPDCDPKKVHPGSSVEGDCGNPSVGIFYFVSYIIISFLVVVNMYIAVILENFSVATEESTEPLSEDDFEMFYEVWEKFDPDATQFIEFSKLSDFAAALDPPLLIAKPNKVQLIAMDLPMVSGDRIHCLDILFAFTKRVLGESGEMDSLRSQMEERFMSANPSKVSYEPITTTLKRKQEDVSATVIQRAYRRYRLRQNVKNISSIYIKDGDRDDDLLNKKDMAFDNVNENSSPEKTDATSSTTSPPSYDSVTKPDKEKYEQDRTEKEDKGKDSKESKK
Target sequence in this assay (Q07699 whole entry partner, looked up): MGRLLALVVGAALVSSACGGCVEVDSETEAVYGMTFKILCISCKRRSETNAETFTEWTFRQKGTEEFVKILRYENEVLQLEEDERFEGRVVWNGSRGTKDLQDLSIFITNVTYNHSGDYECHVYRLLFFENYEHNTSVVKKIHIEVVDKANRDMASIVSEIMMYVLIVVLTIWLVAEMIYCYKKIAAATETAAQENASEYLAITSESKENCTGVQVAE
Experiment [2] has as its target T1, hNav1.7. The experiment in a line: Patch voltage clamp electrophysiology assay (EP), Syncropatch 384PE, CHO cells expressing Nav1.7. The experiment is classed as cell-based. As to conditions: holding potential -50 mV; […] compound incubation; read-out: EP_SP hNav1.7 (Ex. 243B) IC50. The gist of the method:
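Automated whole-cell patch clamp on CHO cells stably expressing human Nav1.7, CsCl/EGTA internal and NMDG/80 mM Na+ external (pH 7.4). From −50 mV holding, −10 mV step, 20 ms recovery at −150 mV, then second −10 mV pulse where block is measured; inhibition after 7.5 min compound incubation.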
Target sequence in this assay (Q15858 other isoform, or with tags, fused parts or gaps): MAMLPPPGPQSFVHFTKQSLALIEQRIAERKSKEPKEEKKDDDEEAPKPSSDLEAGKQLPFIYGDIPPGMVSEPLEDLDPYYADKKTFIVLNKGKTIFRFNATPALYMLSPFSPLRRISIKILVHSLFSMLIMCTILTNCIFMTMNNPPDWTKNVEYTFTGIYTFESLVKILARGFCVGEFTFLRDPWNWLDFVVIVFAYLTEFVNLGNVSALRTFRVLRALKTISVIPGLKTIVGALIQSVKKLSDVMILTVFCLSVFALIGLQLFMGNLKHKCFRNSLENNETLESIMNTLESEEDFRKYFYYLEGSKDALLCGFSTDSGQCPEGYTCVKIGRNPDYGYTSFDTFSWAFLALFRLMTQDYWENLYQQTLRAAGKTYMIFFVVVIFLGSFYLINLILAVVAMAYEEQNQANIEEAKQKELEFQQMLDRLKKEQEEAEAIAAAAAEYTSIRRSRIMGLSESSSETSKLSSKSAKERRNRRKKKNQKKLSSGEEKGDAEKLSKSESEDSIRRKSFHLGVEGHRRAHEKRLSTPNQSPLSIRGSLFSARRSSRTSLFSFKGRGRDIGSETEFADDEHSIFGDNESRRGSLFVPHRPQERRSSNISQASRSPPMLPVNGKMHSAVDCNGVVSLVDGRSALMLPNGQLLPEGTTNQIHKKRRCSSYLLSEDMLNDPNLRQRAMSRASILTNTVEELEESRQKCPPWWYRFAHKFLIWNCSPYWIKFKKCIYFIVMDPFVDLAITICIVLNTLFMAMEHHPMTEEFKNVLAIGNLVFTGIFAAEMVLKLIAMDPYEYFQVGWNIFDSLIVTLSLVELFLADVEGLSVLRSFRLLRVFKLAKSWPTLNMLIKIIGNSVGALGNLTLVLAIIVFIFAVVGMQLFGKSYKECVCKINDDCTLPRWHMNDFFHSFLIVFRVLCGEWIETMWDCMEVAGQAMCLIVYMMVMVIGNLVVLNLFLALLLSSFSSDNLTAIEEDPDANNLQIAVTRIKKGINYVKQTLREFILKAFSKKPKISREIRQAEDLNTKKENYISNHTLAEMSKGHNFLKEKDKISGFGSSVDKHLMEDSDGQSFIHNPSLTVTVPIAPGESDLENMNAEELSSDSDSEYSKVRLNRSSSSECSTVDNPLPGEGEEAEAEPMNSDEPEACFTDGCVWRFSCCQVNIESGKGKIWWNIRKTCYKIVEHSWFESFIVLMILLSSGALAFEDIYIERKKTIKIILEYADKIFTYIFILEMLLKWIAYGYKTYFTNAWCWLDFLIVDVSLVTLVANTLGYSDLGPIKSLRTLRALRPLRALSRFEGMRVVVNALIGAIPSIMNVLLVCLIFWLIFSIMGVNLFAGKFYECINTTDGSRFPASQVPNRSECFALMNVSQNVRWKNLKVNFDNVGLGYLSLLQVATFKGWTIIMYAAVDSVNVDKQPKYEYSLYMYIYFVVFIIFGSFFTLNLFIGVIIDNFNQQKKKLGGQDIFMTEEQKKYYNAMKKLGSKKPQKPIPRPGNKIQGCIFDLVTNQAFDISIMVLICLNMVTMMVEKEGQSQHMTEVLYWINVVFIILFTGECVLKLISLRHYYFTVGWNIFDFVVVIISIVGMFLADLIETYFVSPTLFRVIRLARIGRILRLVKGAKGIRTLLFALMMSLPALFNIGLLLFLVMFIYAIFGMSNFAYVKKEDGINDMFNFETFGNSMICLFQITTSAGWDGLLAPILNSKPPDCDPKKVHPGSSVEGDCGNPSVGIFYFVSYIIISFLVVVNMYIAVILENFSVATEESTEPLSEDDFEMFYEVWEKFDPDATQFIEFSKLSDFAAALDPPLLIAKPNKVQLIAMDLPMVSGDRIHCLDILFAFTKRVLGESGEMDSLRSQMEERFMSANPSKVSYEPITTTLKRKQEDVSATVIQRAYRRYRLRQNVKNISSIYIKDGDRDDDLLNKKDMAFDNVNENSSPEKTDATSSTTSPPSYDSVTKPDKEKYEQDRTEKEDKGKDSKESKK
(In general: Patch clamp records ionic current or voltage across a cell membrane.)

Structures can show the parent of a compound that is named as a salt.

Consider `CN(C)[C@H]1C[C@@H](c2cccc(Cl)c2)CC[C@@H]1Nc1cc(F)c(S(=O)(=O)Nc2ccncn2)cc1Cl` [Example 231, 5-Chloro-4-(((1S,2S,4S)-4-(3-chlorophenyl)-2-(dimethylamino)cyclohexyl)amino)-2-fluoro-N-(pyrimidin-4-yl)benzenesulfonamide formate], for which the IC50 at hNav1.7 [1] worked out at 2.22 nM; on hNav1.7 [2] it was 0.933 nM.

Turning to `CN(C)[C@@H]1CN(c2cccc(C(F)(F)F)c2)CC[C@H]1Nc1cc(F)c(S(=O)(=O)Nc2ccncn2)cc1Cl` [Example 234, 5-Chloro-4-(((3R,4R)-3-(dimethylamino)-1-(3-(trifluoromethyl)phenyl)piperidin-4-yl)amino)-2-fluoro-N-(pyrimidin-4-yl)benzenesulfonamide formate], the IC50 on hNav1.7 [1] was determined as 2000 nM; on hNav1.7 [2], 131 nM.

For `CN(C)[C@H]1C[C@@H]2C[C@@H]2C[C@@H]1Nc1cc(F)c(S(=O)(=O)Nc2nccs2)cc1Cl` [Example 216], the IC50 is 72.1 nM at hNav1.7 [1] and 4.77 nM at hNav1.7 [2].

On to `CN(C)[C@H]1CC2C(C[C@@H]1Nc1cc(F)c(S(=O)(=O)Nc3nccs3)cc1Cl)C2(F)F` (stereo in doubt) [Example 207, 5-Chloro-4-(((1S,3S,4S,6R)-4-(dimethylamino)-7,7-difluorobicyclo[4.1.0]heptan-3-yl)amino)-2-fluoro-N-(thiazol-2-yl)benzenesulfonamide], for which the IC50 on hNav1.7 [1] was 1600 nM; at hNav1.7 [2], 203 nM.

For `CN1CCC[C@H]1C(=O)N(C)[C@H]1CCCC[C@@H]1Nc1cc(F)c(S(=O)(=O)Nc2nccs2)cc1Cl` [Example 201, (S)—N-((1S,2S)-2-((2-chloro-5-fluoro-4-(N-(thiazol-2-yl)sulfamoyl)phenyl)amino)cyclohexyl)-N,1-dimethylpyrrolidine-2-carboxamide], the IC50 was determined as 308 nM at hNav1.7 [1] and 29.6 nM at hNav1.7 [2].

Regarding `CN(CCO)[C@H]1C[C@@H](C(F)(F)F)CC[C@@H]1Nc1cc(F)c(S(=O)(=O)Nc2cccc(F)n2)cc1Cl` [Example 158, 5-chloro-2-fluoro-N-(6-fluoropyridin-2-yl)-4-(((1S,2S,4S)-2-((2-hydroxyethyl)(methyl)amino)-4-(trifluoromethyl)cyclohexyl)amino)benzenesulfonamide formate], the IC50 at hNav1.7 [1] stood at 5.96 nM; on hNav1.7 [2], 2.71 nM.

As for `CN(C)[C@@H]1CC2C(C[C@H]1Nc1cc(F)c(S(=O)(=O)Nc3nccs3)cc1Cl)C2(F)F` (stereo in doubt) [Example 210, 5-Chloro-4-(((1S,3R,4R,6R)-4-(dimethylamino)-7,7-difluorobicyclo[4.1.0]heptan-3-yl)amino)-2-fluoro-N-(thiazol-2-yl)benzenesulfonamide], the results for the IC50 on hNav1.7 [1] and on hNav1.7 [2] were 2000 nM and 415 nM, respectively.

With `Cc1nc(NS(=O)(=O)c2cc(Cl)c(N[C@H]3CCCC[C@@H]3N(C)C)cc2F)sc1Cl` [Example 172, 5-Chloro-N-(5-chloro-4-methylthiazol-2-yl)-4-(((1S,2S)-2-(dimethylamino)cyclohexyl)amino)-2-fluorobenzenesulfonamide], the IC50 stood at 38.2 nM on hNav1.7 [1] and 12.3 nM at hNav1.7 [2].

As to `CN1CCC[C@@H]1C(=O)N(C)[C@H]1CCCC[C@@H]1Nc1cc(F)c(S(=O)(=O)Nc2nccs2)cc1Cl` [Example 204, (R)—N-((1S,2S)-2-((2-Chloro-5-fluoro-4-(N-(thiazol-2-yl)sulfamoyl)phenyl)amino)cyclohexyl)-N,1-dimethylpyrrolidine-2-carboxamide], the values for the IC50 on hNav1.7 [1] and at hNav1.7 [2] were 308 nM and 20.5 nM, respectively.

On to `CN1CC(N(CC(F)(F)F)[C@H]2CCCC[C@@H]2Nc2cc(F)c(S(=O)(=O)Nc3nccs3)cc2Cl)C1` [Example 190, 5-Chloro-2-fluoro-4-(((1S,2S)-2-((1-methylazetidin-3-yl)(2,2,2-trifluoroethyl)amino)cyclohexyl)amino)-N-(thiazol-2-yl)benzenesulfonamide], for which the IC50 on hNav1.7 [1] was 478 nM; at hNav1.7 [2], 41.5 nM.

For `CN(C)[C@H]1C[C@@H](c2cccc(C(F)(F)F)c2)CC[C@@H]1Nc1cc(F)c(S(=O)(=O)Nc2ccncn2)cc1C1CCC1` [Example 236, 5-cyclobutyl-4-(((1S,2S,4S)-2-(dimethylamino)-4-(3-(trifluoromethyl)phenyl)cyclohexyl)amino)-2-fluoro-N-(pyrimidin-4-yl)benzenesulfonamide], the IC50 at hNav1.7 [1] was found to be 0.593 nM; at hNav1.7 [2], 1.6 nM.

For the compound `CN(C)[C@H]1C[C@@H](C(F)(F)F)CC[C@@H]1Nc1cc(F)c(S(=O)(=O)Nc2ccncn2)cc1C1CCC1` [Example 203, 5-cyclobutyl-4-(((1S,2S,4S)-2-(dimethylamino)-4-(trifluoromethyl)cyclohexyl)amino)-2-fluoro-N-(pyrimidin-4-yl)benzenesulfonamide], the IC50 stood at 80.6 nM at hNav1.7 [1] and 11.6 nM at hNav1.7 [2].

In the case of `O=S(=O)(Nc1nccs1)c1cc(Cl)c(N[C@H]2CCCC[C@@H]2N2CCC[C@@](F)(CO)C2)cc1F` [Example 213, 5-Chloro-2-fluoro-4-(((1S,2S)-2-((S)-3-fluoro-3-(hydroxymethyl)piperidin-1-yl)cyclohexyl)amino)-N-(thiazol-2-yl)benzenesulfonamide], the IC50 at hNav1.7 [1] was 218 nM; at hNav1.7 [2], 13.9 nM.

`CN(C1CN(CC(F)(F)F)C1)[C@H]1CCCC[C@@H]1Nc1cc(F)c(S(=O)(=O)Nc2nccs2)cc1Cl` [Example 175, 5-Chloro-2-fluoro-4-(((1S,2S)-2-(methyl(1-(2,2,2-trifluoroethyl)azetidin-3-yl)amino)cyclohexyl)amino)-N-(thiazol-2-yl)benzenesulfonamide]: the IC50 is 316 nM at hNav1.7 [1] and 21.7 nM at hNav1.7 [2].

Consider `O=S(=O)(Nc1cccc(F)n1)c1cc(Cl)c(N[C@H]2CCCC[C@@H]2N2CC3CC3C2)cc1F` (stereo partly drawn) [Example 105, 4-(((1S,2S)-2-(3-azabicyclo[3.1.0]hexan-3-yl)cyclohexyl)amino)-5-chloro-2-fluoro-N-(6-fluoropyridin-2-yl)benzenesulfonamide], for which the 50% inhibitory concentration (IC50) on hNav1.7 [1] was found to be 31.3 nM; at hNav1.7 [2], 4.5 nM.

For the compound `O=S(=O)(Nc1ccncn1)c1cc(Cl)c(N[C@H]2CC[C@H](C(F)(F)F)C[C@@H]2N2CCCCC2)cc1F` [Example 206, 5-chloro-2-fluoro-4-(((1S,2S,4S)-2-(piperidin-1-yl)-4-(trifluoromethyl)cyclohexyl)amino)-N-(pyrimidin-4-yl)benzenesulfonamide], the IC50 on hNav1.7 [1] came out at 41.1 nM; at hNav1.7 [2] it was 8.65 nM.

Turning to `O=S(=O)(Nc1cccc(F)n1)c1cc(Cl)c(N[C@@H]2CCCC[C@H]2N2C[C@@H]3[C@@H](CO)[C@@H]3C2)cc1F` [Example 184], the IC50 on hNav1.7 [1] came out at 2000 nM; at hNav1.7 [2], 4960 nM.

Regarding `O=S(=O)(Nc1cccc(F)n1)c1cc(Cl)c(N[C@H]2CCCC[C@@H]2N2C[C@@H]3[C@@H](CO)[C@@H]3C2)cc1F` [Example 185], the values for the IC50 at hNav1.7 [1] and on hNav1.7 [2] were 771 nM and 36.2 nM, respectively.

`CN(C)[C@H]1C[C@H]2[C@@H](C[C@@H]1Nc1cc(F)c(S(=O)(=O)Nc3nccs3)cc1Cl)C2(Cl)Cl` [Example 196, 5-Chloro-4-(((1R,3S,4S,6S)-7,7-dichloro-4-(dimethylamino)bicyclo[4.1.0]heptan-3-yl)amino)-2-fluoro-N-(thiazol-2-yl)benzenesulfonamide formate]: the IC50 is 664 nM at hNav1.7 [1] and 120 nM at hNav1.7 [2].

In the case of `CN(CCO)[C@H]1CCCC[C@@H]1Nc1cc(F)c(S(=O)(=O)Nc2cccc(F)n2)cc1C1CC1` [Example 128, 5-Cyclopropyl-2-fluoro-N-(6-fluoropyridin-2-yl)-4-(((1S,2S)-2-((2-hydroxyethyl)(methyl)amino)cyclohexyl)amino)benzenesulfonamide formate], the IC50 was 22.8 nM at hNav1.7 [1] and 9.56 nM at hNav1.7 [2].

For the compound `CN1CC[C@H]1C(=O)N(C)[C@H]1CCCC[C@@H]1Nc1cc(F)c(S(=O)(=O)Nc2nccs2)cc1Cl` [Example 202, (S)—N-((1S,2S)-2-((2-chloro-5-fluoro-4-(N-(thiazol-2-yl)sulfamoyl)phenyl)amino)cyclohexyl)-N,1-dimethylazetidine-2-carboxamide], the IC50 on hNav1.7 [1] stood at 245 nM; at hNav1.7 [2] it was 34.4 nM.

For the compound `CN(C)[C@H]1C[C@H](c2cccc(C(F)(F)F)c2)CC[C@@H]1Nc1cc(F)c(S(=O)(=O)Nc2nccs2)cc1Cl` [Example 137, 5-chloro-4-(((1S,2S,4R)-2-(dimethylamino)-4-(3-(trifluoromethyl)phenyl)cyclohexyl)amino)-2-fluoro-N-(thiazol-2-yl)benzenesulfonamide], the results for the IC50 on hNav1.7 [1] and at hNav1.7 [2] were 3.57 nM and 1.24 nM, respectively.

`CN(CCC(C)(C)O)[C@H]1CCCC[C@@H]1Nc1cc(F)c(S(=O)(=O)Nc2cccc(F)n2)cc1Cl` [Example 124, 5-chloro-2-fluoro-N-(6-fluoropyridin-2-yl)-4-(((1S,2S)-2-((3-hydroxy-3-methylbutyl)(methyl)amino)cyclohexyl)amino)benzenesulfonamide]: the figures for the IC50 on hNav1.7 [1] and at hNav1.7 [2] were 1230 nM and 107 nM, respectively.

Consider `CN(CCCO)[C@H]1CCCC[C@@H]1Nc1cc(F)c(S(=O)(=O)Nc2cccc(F)n2)cc1Cl` [Example 122, 5-chloro-2-fluoro-N-(6-fluoropyridin-2-yl)-4-(((1S,2S)-2-((3-hydroxypropyl)(methyl)amino)cyclohexyl)amino)benzenesulfonamide], for which the IC50 at hNav1.7 [1] is 205 nM; at hNav1.7 [2], 33.6 nM.

In the case of `CN(C)[C@H]1C[C@@H](c2cccc(C(F)(F)F)c2)CC[C@@H]1Nc1cc(F)c(S(=O)(=O)Nc2ccncn2)cc1O` [Example 240, 4-(((1S,2S,4S)-2-(Dimethylamino)-4-(3-(trifluoromethyl)phenyl)cyclohexyl)amino)-2-fluoro-5-hydroxy-N-(pyrimidin-4-yl)benzenesulfonamide formate], the values for the IC50 at hNav1.7 [1] and on hNav1.7 [2] were 15 nM and 2.9 nM, respectively.

By IC50 is commonly meant the concentration needed to halve the response being measured.
